Results: patent publication US20070149469A1, “Medical use of tbk-1 or of inhibitors thereof” (priority 2003, published 2007)

Key:
[1] = tested on: normal human dermal fibroblasts (NHDF); assay: NHDF proliferation after transfer of supernatants from transfected HEK 293 cells, Alamar Blue; assay type: cell-based; conditions: 25 μl HEK 293 supernatant, 4 days, versus empty vector
Procedure: In order to investigate the cell type specificity of TBK-1, supernatants from transfected HEK 293 cells were also added to normal human dermal fibroblasts (NHDF). NHDF were seeded at 1,000 cells per well on 96-well tissue culture plates two days prior to the transfer in 100 μl complete Fibroblast Growth Medium (Promocell, Heidelberg). 24 h prior to the transfer the medium was changed to 100 μl Fibroblast Basal Medium (Promocell, Heidelberg) containing 75 μg/ml gentamycin, 50 ng/ml amphotericin B. After 25 μl of HEK 293 supernatant had been transferred, cells were incubated for 4 days and viable cell number was assessed by Alamar Blue reduction as above.

VEGF mRNA = assay: Hypoxia (CoCl2)-induced VEGF mRNA expression in HEK 293 cells after TBK-1 RNAi, quantitative RT-PCR relative to G6PDH; assay type: cell-based, human; conditions: 100 nM siRNA
Procedure: Real-time PCR was carried out using a LightCycler (Roche Diagnostics). Reactions were set up in microcapillary tubes using the following final concentrations: 0.5 μM each of VEGF sense (CTTGCCTTGCTGCTCTACCT) and VEGF antisense (GATTCTGCCCTCCTCCTTCT) primers, 3 mM MgCl2, 1×SYBR Greenmaster mix and 2 μl of cDNA. For TBK-1 0.5 μM each of TBK-1 sense (TTGAAGAGGAGACAACAACAAGA) and TBK-1 antisense (CAT TCC ACC CAC CAC ATC T) primers were used.
Cycling conditions for VEGF were as follows: denaturation (95° C. for 10 min), amplification and quantitation (95° C. for 10 s, 58° C. for 10 s and 72° C. for 13 s, with a single fluorescence measurement at the end of the 72° C. for 13 s segment) repeated 45 times. A melting curve program (55-95° C. with a heating rate of 0.1° C./s and continuous fluorescence measurement) and a cooling step to 40° C. followed. Cycling conditions for TBK-1 were identical.
(§1) For relative quantification the procedure was repeated for G6PDH mRNA as reference gene. Data were analyzed using LightCycler analysis software.
HEK 293 cells were transfected with double stranded RNAi oligos specific for TBK-1 using siPORT Amine according to the manufacture's protocol (Ambion Europe LTD, Cambridgeshire, United Kingdom). […] Under these conditions, increased expression of VEGF is observed and can be detected via VEGF ELISA (as shown in example 3). […]

TBK-1 mRNA = TBK-1 mRNA knock down by RNAi in HEK 293 cells, quantitative RT-PCR relative to G6PDH; assay type: cell-based, human; conditions: 100 nM siRNA
Procedure: Real-time PCR was carried out using a LightCycler (Roche Diagnostics). Reactions were set up in microcapillary tubes using the following final concentrations: 0.5 μM each of TBK-1 sense (TTGAAGAGGAGACAACAACAAGA) and TBK-1 antisense (CAT TCC ACC CAC CAC ATC T) primers, 3 mM MgCl2, 1×SYBR Greenmaster mix and 2 μl of cDNA.
Cycling conditions for TBK-1 were as follows: denaturation (95° C. for 10 min), amplification and quantitation (95° C. for 10 s, 58° C. for 10 s and 72° C. for 13 s, with a single fluorescence measurement at the end of the 72° C. for 13 s segment) repeated 45 times. A melting curve program (55-95° C. with a heating rate of 0.1° C./s and continuous fluorescence measurement) and a cooling step to 40° C. followed.
as §1
HEK 293 cells were transfected with double stranded RNAi oligos specific for TBK-1 using siPORT Amine according to the manufacture's protocol (Ambion Europe LTD, Cambridgeshire, United Kingdom). […] Under these conditions, increased expression of VEGF is observed and can be detected via VEGF ELISA (as shown in example 3).
To determine the functionality of the RNAi molecule regarding inhibition of TBK-1 expression, relative expression levels of TBK-1 mRNAs were analysed by quantitative real-time PCR. […]

Row | Substance | stimulation of NHDF proliferation [1] | induction of VEGF mRNA under hypoxia (VEGF mRNA) | inhibition of expression of TBK-1 mRNA (TBK-1 mRNA) [%]
1 | FGF-2 | clearly responsive |  | 
2 | TBK-1 RNAi: double stranded RNAi oligo specific for TBK-1: sense GGA GAC AAC AAC AAG ACA Utt, antisense AUG UCU UGU UGU UGU CUC Ctc (sense GGAGACAACAACAAGACAU; antisense AUGUCUUGUUGUUGUCUCCC; listed as RNA, chemistry not given here) |  | significantly reduces | > 85
